In paper PMC9374667 (Communications Biology, 2022):
“And” between values parts separate entries of the source, which are not always exact repeats. Identical values can stand only once.

Columns and labels:
db/db mice [1] = test: Body weight of db/db mice during 35-day treatment; type: in vivo; conditions: db/db mice, 5 weeks; BJ 75 and 150 mg/kg, BBR 150 mg/kg, Ibu 150 mg/kg
Method: The lean wild type control and the db/db control mice were given equal vehicle volume (0.5% CMC-Na solution). All mice were monitored for food intake, body weight, and fasting blood glucose during the 35-day trial. Glucose tolerance test (GTT) and insulin resistance test (ITT) were performed at 4 and 5 weeks of treatment, respectively. Metabolic analysis was performed at 5 weeks of treatment. At the end of the study, blood samples were taken through the retroorbital venous sinus of mice, fat depots (brown fat, inguinal subcutaneous fat, epididymal fat, perirenal fat and mesenteric fat depot) were dissected, weighed, and immediately frozen in liquid nitrogen and stored at −80 °C until required. Weight of fat depots are expressed in percentage (fat depots weight /bodyweight * 100%).

db/db mice [2] = test: Serum CHO, TG, FFA, LDL-C, HDL-C and ADPN in the fasted state; type: in vivo; conditions: db/db mice; for ADPN (Figure 4j) / FFA (Figure 4g) / HDL-C (Figure 4i) / LDL-C (Figure 4h): serum, individual mice 1-6; for Serum CHO / Serum TG: fasted state, individual mice
Method: The serum was collected by centrifugation at 3000 × g at 4 °C for 15 min and stored at −80 °C until analysis. TG, TC, LDL-C, HDL-C, and FFA were routinely tested on a Chemray 240 automatic biochemical analyzer (Chemray 240, Shenzhen, China). Serum levels of mouse adiponectin, interleukin6 (IL-6), tumor necrosis factor-α (TNF-α) were measured using commercial enzyme-linked immunosorbent assay (ELISA) kits (Nanjing Jiancheng Bioengineering Institute, Nanjing, China) and according to the manufacturer’s instructions. The levels of IL-6, TNF-α in 3T3-L1 adipocyte culture supernatant were also detected by ELISA.

cAMP = cAMP levels in eWAT of db/db mice (isoproterenol); type: in vivo; parameters: cAMP levels in eWAT (Figure 4l): unit not given here; conditions: for cAMP levels in eWAT (Figure 4l): individual samples 1-6
Method: The epididymal adipose tissue was dissected, the fresh adipose tissue was weighed and rapidly rinsed with PBS. The adipose tissue was cut and incubated with isoproterenol (10 μM) for 2 h, and homogenized in a cold cleavage buffer to prepare the adipose tissue homogenate. Then the homogenate was centrifuged at 12,000 × g at 4 °C for 15 min, and the supernatant was collected. For 3T3-L1 adipocytes, the adipocytes were treated with or without 50 ng/ml TNF-α or 3 μg IKKε plasmid or 4 μM siIKKε for 24 h and then treated with or without 10 μM ISO or 10 μM BJ for 24 h. Then the cells were lysed in a petri dish, scraped off, and centrifuged at 12,000 × g at 4 °C for 15 min before the supernatant was collected.
Glycerol or cAMP content in adipose tissue and 3T3-L1 adipocytes was determined by a glycerol assay kit (Nanjing Jiancheng Bioengineering Institute, Nanjing, China) or a mouse cAMP assay kit (Nanjing Jiancheng Bioengineering Institute, Nanjing, China). And concentrations were further standardized according to protein concentration.

db/db mice [3] = test: Glucose tolerance test (GTT); type: in vivo; conditions: for blood glucose level, mean: mean of 10 mice
3T3-L1 adipocytes = test: Oil Red O staining and lipid quantification; type: cell-based, Murine; conditions: for Oil Red O staining of differentiated 3T3-L1 adipocytes spectrophotometric analysis: Figure 7b, replicates;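 as to Oil Red O staining of differentiated 3T3-L1 adipocytes spectrophotometric analysis: treatment added on day 8 of adipocyte differentiation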
Method: Meanwhile, we conducted in vitro experiments to validate the role of BJ in adipocytes. […] These findings were similar to the results in vivo.
Murine 3T3-L1 preadipocytes were the kind gift of Prof. Wenbin Shang and Prof. Xizhong Yu (Nanjing University of Chinese Medicine, China). Cells were cultured in Dulbecco’s modified Eagle’s medium (DMEM) supplemented with 10% (vol/vol) fetal bovine serum (FBS), 1% (vol/vol) penicillin/streptomycin in an incubator at 37 °C and 5% CO2 (until confluent). Two days after the preadipocytes reached 100% confluency (designated day 0), the cells were cultured in DMEM with 10% FBS supplemented with IBMX (0.5 mM final concentration), DEX (1 μM final concentration), and insulin (10 μg/ml final concentration) for 3 days (days 0–3). Then the cells were cultured in a medium containing insulin (10 μg/ml final concentration) for another 3 days (days 3–6).
Lipid accumulation in differentiated adipocytes was observed by Oil Red O staining. The differentiated 3T3-L1 adipocytes were washed with PBS for 3 times and fixed with 4% paraformaldehyde for 30 min at room temperature. The fixed 3T3-L1 adipocytes were washed with PBS for 3 times and stained with Oil Red O solution at room temperature for 60 min. Stained lipid droplets were photographed and then eluted with 100% isopropanol stained Oil Red O. Finally, the optical density (OD) value of the eluent was measured at 510 nm wavelength with a microplate reader.

[4] = vs vehicle, BJ 75 and 150 mg/kg, BBR 150 mg/kg, Ibu 150 mg/kg

CC(C)Cc1ccc(C(C)C(=O)[O-])cc1.COc1ccc2cc3[n+](cc2c1OC)CCc1cc2c(cc1-3)OCO2.O.O.O.O [BJ, berberine-ibuprofen]
Body weight compared with vehicle (db/db mice [1]): lower body weight than the db/db mice treated with the vehicle | ADPN (Figure 4j) (db/db mice [2]; BJ 75mg/kg): 460 and 566.78 and 483.17 and 443.62 and 491.01 and 609.29 | FFA (Figure 4g) (db/db mice [2]; BJ 75mg/kg): 641.9 and 692.8 and 709.3 and 711.6 and 731.5 and 667 | HDL-C (Figure 4i) (db/db mice [2]; BJ 75mg/kg): 2.6 and 2.7 and 3.1 and 2.1 and 3 and 2.4 | LDL-C (Figure 4h) (db/db mice [2]; BJ 75mg/kg): 4.35 and 5.54 and 4.19 and 5.48 and 5.18 and 4.51 | ADPN (Figure 4j) (db/db mice [2]; BJ 150mg/kg): 563.3 and 624.62 and 712.07 and 705.63 and 665.38 and 609.46 | FFA (Figure 4g) (db/db mice [2]; BJ 150mg/kg): 697.7 and 666.2 and 614.5 and 627 and 678.9 and 614.6 | HDL-C (Figure 4i) (db/db mice [2]; BJ 150mg/kg): 3.5 and 2.9 and 2.4 and 2.8 and 2.7 and 3.1 | LDL-C (Figure 4h) (db/db mice [2]; BJ 150mg/kg): 3.35 and 4.57 and 3.32 and 3.26 and 3.43 and 3.59 | Serum CHO (db/db mice [2]; 75 mg/kg): 4.2 mmol/L and 4.3 mmol/L and 4.6 mmol/L and 3.4 mmol/L and 6.1 mmol/L and 5.3 mmol/L | Serum TG (db/db mice [2]; 75 mg/kg): 0.92 mmol/L and 1.17 mmol/L and 1.79 mmol/L and 1.19 mmol/L and 1.62 mmol/L and 1.33 mmol/L | Serum CHO (db/db mice [2]; 150 mg/kg): 3.2 mmol/L and 4.9 mmol/L and 4.5 mmol/L and 4.2 mmol/L and 3.7 mmol/L and 4.6 mmol/L | Serum TG (db/db mice [2]; 150 mg/kg): 1.18 mmol/L and 1.01 mmol/L and 1.29 mmol/L and 1.1 mmol/L and 1.5 mmol/L | Serum levels of CHO, TG, FFA and LDL-C (db/db mice [2]; [4]): decreased | Serum levels of HDL-C and adiponectin (ADPN) (db/db mice [2]; [4]): increased | cAMP levels in eWAT (cAMP; db/db mice, isoproterenol stimulation): increased the cAMP levels | cAMP levels in eWAT (Figure 4l) (cAMP; db/db+ISO+BJ 75mg/kg): 0.344 (2×) and 0.3396 and 0.3778 and 0.3937 and 0.3516 | cAMP levels in eWAT (Figure 4l) (cAMP; db/db+ISO+BJ 150mg/kg): 0.3909 and 0.4246 and 0.4135 (2×) and 0.4162 and 0.4061 | blood glucose level, mean (db/db mice [3]; BJ 75mg/kg, time column 1 of 7 (time not printed)): 20.5 mmol/L | blood glucose level, mean (db/db mice [3]; BJ 75mg/kg, time column 2 of 7 (time not given)): 26.6 mmol/L | blood glucose level, mean (db/db mice [3]; BJ 75mg/kg, time column 3 of 7 (time not given)): 31.4 mmol/L | blood glucose level, mean (db/db mice [3]; BJ 75mg/kg, time column 4 of 7 (time not given)): 32 mmol/L | blood glucose level, mean (db/db mice [3]; BJ 75mg/kg, time column 5 of 7 (time not given)): 31.2 mmol/L | blood glucose level, mean (db/db mice [3]; BJ 75mg/kg, time column 6 of 7 (time not given)): 28.2 mmol/L | blood glucose level, mean (db/db mice [3]; BJ 75mg/kg, time column 7 of 7 (time not printed)): 23.2 mmol/L | blood glucose level, mean (db/db mice [3]; BJ 150mg/kg, time column 1 of 7 (time not printed)): 12.3 mmol/L | blood glucose level, mean (db/db mice [3]; BJ 150mg/kg, time column 2 of 7 (time not given)): 26.4 mmol/L | blood glucose level, mean (db/db mice [3]; BJ 150mg/kg, time column 3 of 7 (time not given)): 27.7 mmol/L | blood glucose level, mean (db/db mice [3]; BJ 150mg/kg, time column 4 of 7 (time not given)): 24.1 mmol/L | blood glucose level, mean (db/db mice [3]; BJ 150mg/kg, time column 5 of 7 (time not given)): 21.2 mmol/L | blood glucose level, mean (db/db mice [3]; BJ 150mg/kg, time column 6 of 7 (time not given)): 18.4 mmol/L | blood glucose level, mean (db/db mice [3]; BJ 150mg/kg, time column 7 of 7 (time not printed)): 15.8 mmol/L | Glucose tolerance (GTT) (db/db mice [3]; db/db mice, 150 mg/kg, week 4): displayed better tolerance to glucose load | Oil Red O staining of differentiated 3T3-L1 adipocytes spectrophotometric analysis (3T3-L1 adipocytes; 3μM BJ): 0.6023 O.D. and 0.5794 O.D. and 0.5902 O.D. and 0.5901 O.D. and 0.5958 O.D. and 0.5823 O.D. | Oil Red O staining of differentiated 3T3-L1 adipocytes spectrophotometric analysis (3T3-L1 adipocytes; 10μM BJ): 0.6036 O.D. and 0.5893 O.D. and 0.5433 O.D. and 0.5202 O.D. and 0.5568 O.D. and 0.48 O.D. | Accumulation of lipid droplets (3T3-L1 adipocytes; differentiated 3T3-L1 adipocytes, BJ 3 μM and 10 μM, 24 h, Oil Red O): reduced the accumulation of lipid droplets in 3T3-L1 adipocytes in a dose-dependent manner
